Results on one molecule are retold here after patent US8853214B2, “Pyridazine compounds for controlling invertebrate pests” (BASF SE, priority 2010, dated 2014).

Some results are limits rather than exact numbers.

This test concerns Aphis craccivora. The experiment in a line: Cowpea aphid (Aphis craccivora) spray test on potted cowpea plants. The note with it: in comparison with untreated controls, population reduction assessed after 24, 72 and 120 hours. The format is in vivo. As to the method:
II.1 Cowpea Aphid (Aphis craccivora)
The active compounds were formulated in 50:50 (vol:vol) acetone:water. The test solution was prepared at the day of use.
Potted cowpea plants colonized with 100-150 aphids of various stages were sprayed after the pest population had been recorded. Population reduction was assessed after 24, 72, and 120 hours.

Regarding `O=C(Nc1ccnnc1)c1ccco1` [II.31, Furan-2-carboxylic acid pyridazin-4-ylamide], the mortality at 500 ppm was at least 75%.
